Tested on: healthy male volunteers
Test: Randomized, double-blind, placebo-controlled gastric emptying study (99Tc radiolabeled meal, external scintigraphy)
Assay type: in vivo, human
Experimental: Methodology: This is a single center, double-blind, randomized, parallel group trial using a placebo control or tegaserod 6 mg t.i.d. in combination with omeprazole 20 mg b.i.d. Gastric emptying is assessed using a standardized method that has been previously validated and found to be sensitive and specific. After an overnight fast, the subjects are asked to ingest a standardized ^99Tc radiolabeled meal (250 ml EggBeater, the equivalent of two eggs, two slices of white bread, 30 cc of strawberry jam and 120 ml of water). The level of radioactivity in gastric contents is measured by external scintigraphy immediately following completion of the meal and then at 60, 120 and 240 minutes after the end of the meal.
Number of subjects: 40 healthy male volunteers (20 per group)
Investigational drug: Tegaserod 6 mg tablets (supplied by Novartis Canada, but are normal 6 mg Zelnorm tablet obtainable as prescription) for oral administration. Each dose consists of a tablet to be taken with a glass of water within 15-30 minutes before mealtime three times daily. […]
Efficacy: The primary efficacy parameter is time to half emptying (T1/2) of gastric contents. The secondary efficacy endpoints were the calculated lag phase, and percent of gastric contents remaining in the stomach at 60, 120 and 240 minutes after ingestion of a standard meal. […]

CCCCCNC(=N)N/N=C/c1c[nH]c2ccc(OC)cc12 [tegaserod, 3-(5-methoxy-1H-indol-3-yl-methylene)-N-pentylcarbazimidamide]
gastric emptying at all the studied time points versus baseline (tegaserod 6 mg t.i.d. in combination with omeprazole 20 mg b.i.d., oral, 14 days): not statistically different from the respective baseline values | development of delayed gastric emptying caused by omeprazole (tegaserod added to omeprazole, healthy male volunteers): prevented development of delayed gastric emptying
